Experimental data reported in ChEMBL document CHEMBL1147550, “Capped dipeptide phenethylamide inhibitors of the HCV NS3 protease” (Bioorg Med Chem Lett, 2004).

Target: Genome polyprotein (Hepatitis C virus genotype 1a (isolate 1) (HCV), UniProt P26664)
Assay: Inhibition of Hepatitis C virus NS3 protease in vitro.

Genome polyprotein, sequence (P26664 1027-1657 limits assumed): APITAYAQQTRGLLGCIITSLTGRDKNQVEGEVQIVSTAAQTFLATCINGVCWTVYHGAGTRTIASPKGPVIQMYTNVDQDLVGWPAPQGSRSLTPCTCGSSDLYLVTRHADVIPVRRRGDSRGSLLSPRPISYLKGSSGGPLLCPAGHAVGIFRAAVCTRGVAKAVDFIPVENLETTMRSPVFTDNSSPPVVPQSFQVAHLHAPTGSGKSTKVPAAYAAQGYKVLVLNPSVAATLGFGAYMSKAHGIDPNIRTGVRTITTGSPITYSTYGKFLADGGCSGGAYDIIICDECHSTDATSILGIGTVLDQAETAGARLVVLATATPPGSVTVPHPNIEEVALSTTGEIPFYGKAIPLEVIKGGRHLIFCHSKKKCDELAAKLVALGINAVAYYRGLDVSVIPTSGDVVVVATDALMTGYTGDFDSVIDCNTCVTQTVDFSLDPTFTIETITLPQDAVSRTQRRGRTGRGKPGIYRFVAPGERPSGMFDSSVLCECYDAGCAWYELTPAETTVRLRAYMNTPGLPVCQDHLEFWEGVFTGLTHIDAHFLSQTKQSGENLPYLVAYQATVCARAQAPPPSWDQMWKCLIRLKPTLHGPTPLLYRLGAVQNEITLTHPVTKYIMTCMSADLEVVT

Row | SMILES | IC50 [µM]
1 | CC(C)C[C@H](NC(=O)[C@H](O)c1ccccc1)C(=O)N[C@@H](CC(F)F)C(=O)C(=O)O | 3
2 | CC(C)CC(=O)N1C[C@H](c2ccccc2)C[C@H]1C(=O)N[C@@H](CC(F)F)C(=O)NCCc1c(F)cc(C(=O)O)cc1F | 58
3 | O=C(O)c1cc(F)c(CCNC(=O)[C@H](CC(F)F)NC(=O)[C@@H]2C[C@@H](c3ccccc3)CN2C(=O)C(O)C2CC2)c(F)c1 (stereo partly specified) | > 100
4 | O=C(O)c1cc(F)c(CCNC(=O)[C@H](CC(F)F)NC(=O)[C@@H]2C[C@@H](c3ccccc3)CN2C(=O)C(O)Cc2ccccc2)c(F)c1 (stereo partly specified) | > 100
5 | CC(C)COC(=O)N[C@H](C(=O)N[C@@H](CC(C)C)C(=O)N[C@@H](CC(F)F)C(=O)NCCc1ccc(C(=O)O)cc1Cl)C(C)C | 2.4
6 | CC(C)(C)[C@H](O)C(=O)N1C[C@H](c2ccccc2)C[C@H]1C(=O)N[C@@H](CC(F)F)C(=O)NCCc1c(F)cc(C(=O)O)cc1F | 18
7 | O=C(O)c1cc(F)c(CCNC(=O)[C@H](CC(F)F)NC(=O)[C@@H]2C[C@@H](c3ccccc3)CN2C(=O)[C@H](O)c2ccccc2)c(F)c1 | > 100
8 | O=C(O)c1cc(F)c(CCNC(=O)[C@H](CC(F)F)NC(=O)[C@@H]2C[C@@H](c3ccccc3)CN2C(=O)[C@H](O)C2CCCC2)c(F)c1 | 62
9 | O=C(O)c1cc(F)c(CCNC(=O)[C@H](CC(F)F)NC(=O)[C@@H]2C[C@@H](c3ccccc3)CN2C(=O)CC2CCCC2)c(F)c1 | 34
10 | O=C(O)c1cc(F)c(CCNC(=O)[C@H](CC(F)F)NC(=O)[C@@H]2C[C@@H](c3ccccc3)CN2C(=O)[C@@H](O)C2CCCCC2)c(F)c1 | 14
11 | O=C(O)c1cc(F)c(CCNC(=O)[C@H](CC(F)F)NC(=O)[C@@H]2C[C@@H](c3ccccc3)CN2C(=O)[C@@H](O)C2CCCC2)c(F)c1 | 13
12 | CC(C)COC(=O)N[C@H](C(=O)N1C[C@H](c2ccccc2)C[C@H]1C(=O)N[C@@H](CC(F)F)C(=O)NCCc1c(F)cc(C(=O)O)cc1F)C(C)C | 0.9
13 | O=C(O)c1cc(F)c(CCNC(=O)[C@H](CC(F)F)NC(=O)[C@@H]2C[C@@H](c3ccccc3)CN2C(=O)[C@@H](O)c2ccccc2)c(F)c1 | > 100
14 | CC(C)[C@H](O)C(=O)N1C[C@H](OC2CCCCC2)C[C@H]1C(=O)N[C@@H](CC(F)F)C(=O)NCCc1c(F)cc(C(=O)O)cc1F | 32

Continued, values first:

Row | IC50 [µM] | SMILES
15 | 50 | CCC(CC)C(O)C(=O)N1C[C@H](c2ccccc2)C[C@H]1C(=O)N[C@@H](CC(F)F)C(=O)NCCc1c(F)cc(C(=O)O)cc1F (stereo partly specified)
16 | 18 | CC(C)[C@H](O)C(=O)N1C[C@H](c2ccccc2)C[C@H]1C(=O)N[C@@H](CC(F)F)C(=O)NCCc1c(F)cc(C(=O)O)cc1F
17 | > 100 | CC(C)[C@H](O)C(=O)N1C[C@H](OCc2ccccc2Cl)C[C@H]1C(=O)N[C@@H](CC(F)F)C(=O)NCCc1c(F)cc(C(=O)O)cc1F
18 | 12 | CC(C)[C@H](O)C(=O)N1C[C@H](OCc2ccc(Br)cc2)C[C@H]1C(=O)N[C@@H](CC(F)F)C(=O)NCCc1c(F)cc(C(=O)O)cc1F
19 | 11 | CC(C)[C@H](O)C(=O)N1C[C@H](OCCCc2ccccc2)C[C@H]1C(=O)N[C@@H](CC(F)F)C(=O)NCCc1c(F)cc(C(=O)O)cc1F
20 | 27 | CC(C)[C@H](O)C(=O)N1C[C@H](OCc2ccccc2)C[C@H]1C(=O)N[C@@H](CC(F)F)C(=O)NCCc1c(F)cc(C(=O)O)cc1F
21 | > 100 | CC(C)[C@@H](O)C(=O)N1C[C@H](c2ccccc2)C[C@H]1C(=O)N[C@@H](CC(F)F)C(=O)NCCc1c(F)cc(C(=O)O)cc1F
